# Experimental data: US9776149B2, “Compositions and methods for preparing nanoformulations and systems for nano-delivery using focused acoustics” (Covaris, Inc., priority 2010, dated 2017)
# Tests used:
# [1] = Particle size of drug suspensions before and after focused acoustic processing (Malvern Mastersizer 2000 / Zetasizer Nano ZS-90); type: physicochemical
# Description: Particle size distributions of mixtures and/or nanoformulations described herein may be measured using dynamic laser light scattering, also called Photon correlation spectroscopy (e.g., using Malvern Zetasizer-S, Zetasizer Nano ZS-90 or Mastersizer 2000 instruments; Malvern Instruments Inc.; Southborough Mass.). The Malvern Zetasizer-S instrument was used to estimate average particle sizes with a 4 mW He—Ne laser operating at a wavelength of 633 nm and an avalanche photodiode detector (APD). The average size of particles in a mixture may be estimated as the mean hydrodynamic size. The particle size distribution may be estimated according to polydispersity index (PDI), which is known in the art as a measure of the tightness of a distribution. The average size of particles and the PDI of mixtures and nanoformulations discussed herein are calculated according to the International Standard on dynamic light scattering, ISO 13321.
# Suspension mixtures were prepared in water (deionized and purified by a Barnstead water purification system), methyl cellulose (from Sigma Aldrich) and sodium lauryl sulfate (from Fisher Scientific) for Ibuprofen (from Spectrum Chemicals), Cinnarizine (from Spectrum Chemicals), Indomethacin (from Spectrum Chemicals) and Griseofulvin (from MP Bio). The initial particle sizes of these suspension mixtures was reduced subject to focused acoustic processing using a Covaris SF220 High Performance Formulation Processing System under 150 Watts of power. Particle size distributions were measured using a Malvern Zetasizer Nano ZS-90 in the nanometer particle size range and a Malvern Mastersizer 2000 in the micron particle size range.
# Suspension mixtures included water, 0.5% methyl cellulose and 0.1% sodium lauryl sulfate for Ibuprofen, Cinnarizine, Indomethacin and Griseofulvin at 15 mg/mL for batches of 2 mL, 12 mL and 18 mL. The 2 mL, 12 mL and 18 mL batches were subject to focused acoustic processing for 5 minutes, 5 minutes and 10 minutes, respectively. […] The image 400 prior to exposure to the focused acoustics depicts particles that are substantially larger (e.g., 15-20×) than corresponding particles shown in the image 402 after treatment of the particles to the focused acoustics. Particle size results for each of the four compounds are provided in Table 1 (particle sizes are noted as d90 unless specified otherwise).
# The concentration of Ibuprofen was then varied in respective suspensions at fixed volumes of 2 mL, 12 mL and 18 mL. […] For instance, after 10 minutes of focused acoustic processing, the percent difference of the greatest variation in d90 particle size (i.e., 39.53-34.04=5.49) between concentrations (i.e., for 1 mg/mL, 15 mg/mL and 100 mg/mL) as compared to the initial d90 particle size (i.e., 203.67) is less than 3%.
# Suspension mixtures included water, 0.025% methyl cellulose and 0.1% sodium lauryl sulfate for Ibuprofen, Cinnarizine, Indomethacin and Griseofulvin at 5 mg/mL for 2 mL batches. Each batch was subject to focused acoustic processing for 15 minutes and 30 minutes, respectively. Table 3 lists the average particle size results for each of the four compounds. Within 15 minutes, nano-suspensions were generated with an average particle size ranging between 100 nm and 280 nm for each of the mixtures. Within 30 minutes, an average particle size range of between 20 nm and 97 nm was achieved.
# Using a scale-up system and without changing the mechanical attributes of the particle size reduction process, the Ibuprofen suspension mixture was increased to 250 mL. The flow rate was set to 30 mL/min. […] Suspension aliquots were analyzed by HPLC using a stability-indicating method as a guide. […] Through 60 minutes of focused acoustic processing, the particle size distribution of the suspension was measured to have a relative standard deviation of 0.38%. […]
# [2] = Homogeneity and chemical stability of 250 mL Ibuprofen suspension (sampling at different depths, HPLC); type: physicochemical
# Description: Using a scale-up system and without changing the mechanical attributes of the particle size reduction process, the Ibuprofen suspension mixture was increased to 250 mL. The flow rate was set to 30 mL/min. […] Suspension aliquots were analyzed by HPLC using a stability-indicating method as a guide. […] Through 60 minutes of focused acoustic processing, the particle size distribution of the suspension was measured to have a relative standard deviation of 0.38%. […] FIG. 7 illustrates the results of such size reduction over time for d90 particle size 410, d50 particle size 412 and d10 particle size 414.
# [3] = 15 mg/mL suspension, 2 mL, 5 min
# [4] = 15 mg/mL suspension, 12 mL, 5 min
# [5] = 15 mg/mL suspension, 18 mL, 10 min
# [6] = 15 mg/mL suspension, Initial (before focused acoustic processing)
# [7] = nano-suspension, 5 mg/mL, 2 mL batch, 15 min
# [8] = nano-suspension, 5 mg/mL, 2 mL batch, 30 min
# [9] = nano-suspension, 5 mg/mL, 2 mL batch, Initial
# [10] = 1, 15 and 100 mg/mL, after 10 minutes of processing
compound,measurement,setting,value
COc1ccc2c(c1)c(CC(=O)O)c(C)n2C(=O)c1ccc(Cl)cc1 [Indomethacin],Particle size (d90),[1]; [3],20.88 microns
same,Particle size (d90),[1]; [4],38.32 microns
same,Particle size (d90),[1]; [5],28.73 microns
same,Particle size (d90),[1]; [6],239.88 microns
same,Average particle size,"[1]; in water, after exposure to focused acoustic energy (FIG. 12)",approximately 5 microns
same,Average particle size,[1]; [7],127.4 nm
same,Average particle size,[1]; [8],20 nm
same,Average particle size,[1]; [9],239.88 microns
COC1=CC(=O)C[C@@H](C)[C@]12Oc1c(Cl)c(OC)cc(OC)c1C2=O [Griseofulvin],Particle size (d90),[1]; [3],16.86 microns
same,Particle size (d90),[1]; [4],31.45 microns
same,Particle size (d90),[1]; [5],31.01 microns
same,Particle size (d90),[1]; [6],44.45 microns
same,Average particle size,[1]; [7],100 nm
same,Average particle size,[1]; [8],90 nm
same,Average particle size,[1]; [9],44.45 microns
CC(C)Cc1ccc(C(C)C(=O)O)cc1 (stereo not drawn) [Ibuprofen],Homogeneity of suspension,[2]; first measured time point of 15 minutes,homogeneous
same,"Chemical stability (impurity growth, HPLC)",[2]; over 60 minutes of processing,no impurity growth
same,% of particles below 20 microns,[1]; [3],(100% of particles
same,Particle size (d90),[1]; [3],12.55 microns
same,% of particles below 40 microns,[1]; [4],(97% of particles
same,Particle size (d90),[1]; [4],33.35 microns
same,% of particles below 40 microns,[1]; [5],(97% of particles
same,Particle size (d90),[1]; [5],39.53 microns
same,% of particles above 40 microns,"[1]; 15 mg/mL suspension, Initial",(97% of particles
same,Particle size (d90),[1]; [6],203.67 microns
same,"Particles prior to focused acoustics larger than particles after treatment (micrographs, FIG. 6)","[1]; 15 mg/mL, 50× magnification",15-20 ×
same,Greatest variation in d90 particle size between concentrations,[1]; [10],5.49
same,Percent difference of greatest variation in d90 between concentrations compared to initial d90,[1]; [10],less than 3%
same,Percentage of particles below 40 microns,"[1]; 250 mL scale-up, 15 min",90%
same,d10,"[1]; 250 mL scale-up, 15 min",6.805 microns
same,d50,"[1]; 250 mL scale-up, 15 min",21.701 microns
same,d90,"[1]; 250 mL scale-up, 15 min",39.726 microns
same,Percentage of particles below 40 microns,"[1]; 250 mL scale-up, 30 min",93.57%
same,d10,"[1]; 250 mL scale-up, 30 min",6.023 microns
same,d50,"[1]; 250 mL scale-up, 30 min",19.055 microns
same,d90,"[1]; 250 mL scale-up, 30 min",36.328 microns
same,Percentage of particles below 40 microns,"[1]; 250 mL scale-up, 45 min",98.31%
same,d10,"[1]; 250 mL scale-up, 45 min",3.583 microns
same,d50,"[1]; 250 mL scale-up, 45 min",16.167 microns
same,d90,"[1]; 250 mL scale-up, 45 min",31.091 microns
same,Percentage of particles below 40 microns,"[1]; 250 mL scale-up, 60 min",98.39%
same,d10,"[1]; 250 mL scale-up, 60 min",3.351 microns
same,d50,"[1]; 250 mL scale-up, 60 min",14.843 microns
same,d90,"[1]; 250 mL scale-up, 60 min",28.005 microns
same,Percentage of particles below 40 microns,"[1]; 250 mL scale-up, Initial",5%
same,d10,"[1]; 250 mL scale-up, Initial",50 microns
same,d50,"[1]; 250 mL scale-up, Initial",97.834 microns
same,d90,"[1]; 250 mL scale-up, Initial",203.67 microns
same,Particle size (d90),"[1]; Table 2, 1 mg/mL, 2 mL, 5 min",12.55 microns
same,Particle size (d90),"[1]; Table 2, 1 mg/mL, 12 mL, 5 min",33.35 microns
same,Particle size (d90),"[1]; Table 2, 1 mg/mL, 18 mL, 10 min",39.53 microns
same,Particle size (d90),"[1]; Table 2, 1 mg/mL, Initial",203.67 microns
same,Particle size (d90),"[1]; Table 2, 15 mg/mL, 2 mL, 5 min",19.03 microns
same,Particle size (d90),"[1]; Table 2, 15 mg/mL, 12 mL, 5 min",34.88 microns
same,Particle size (d90),"[1]; Table 2, 15 mg/mL, 18 mL, 10 min",34.04 microns
same,Particle size (d90),"[1]; Table 2, 15 mg/mL, Initial",203.67 microns
same,Particle size (d90),"[1]; Table 2, 100 mg/mL, 2 mL, 5 min",29.54 microns
same,Particle size (d90),"[1]; Table 2, 100 mg/mL, 12 mL, 5 min",37.78 microns
same,Particle size (d90),"[1]; Table 2, 100 mg/mL, 18 mL, 10 min",35.53 microns
same,Particle size (d90),"[1]; Table 2, 100 mg/mL, Initial",203.67 microns
same,Average particle size,[1]; [7],110 nm
same,Average particle size,[1]; [8],97 nm
same,Average particle size,[1]; [9],203.67 microns
O=c1c(O)c(-c2ccc(O)c(O)c2)oc2cc(O)cc(O)c12 [Quercetin],Average particle size,"[1]; 250 mL in water, no surfactant, 24 degrees C., in under 80 minutes",less than 10 microns
same,Average particle size,"[1]; 250 mL in water, no surfactant, before processing",over 200 microns
C(=C\c1ccccc1)/CN1CCN(C(c2ccccc2)c2ccccc2)CC1 [Cinnarizine],Particle size (d90),[1]; [3],37.29 microns
same,Particle size (d90),[1]; [4],41.73 microns
same,Particle size (d90),[1]; [5],43.00 microns
same,Particle size (d90),[1]; [6],149.17 microns
same,Average particle size,"[1]; 250 mL scale-up, 1 hour of processing",1 micron
same,Average particle size,"[1]; 250 mL scale-up, about 9 hours",approximately 200 nm
same,Average particle size,"[1]; 250 mL scale-up, starting",approximately 200 microns
same,Average particle size,[1]; [7],280 nm
same,Average particle size,[1]; [8],56.85 nm
same,Average particle size,[1]; [9],149.17 microns
